Measurements as given in patent publication US20260085069A1, “PRODRUGS” (Cambridge Enterprise Limited, priority 2022, published 2026).
≈ marks a conversion by molar mass, not a printed value.

Key:
[1] = Stability in aqueous media (FaSSIF, SGF, PBS); format: physicochemical; conditions: for FaSSIF (pH 6.5) % remaining 1 h / FaSSIF (pH 6.5) % remaining 6 h / FaSSIF (pH 6.5) % remaining 24 h: FaSSIF pH 6.5, 37° C.; for PBS (pH 7.4) % remaining 1 h / PBS (pH 7.4) % remaining 6 h / PBS (pH 7.4) % remaining 24 h: PBS pH 7.4, 37° C.; for SGF (pH 1.2) % remaining 1 h / SGF (pH 1.2) % remaining 6 h / SGF (pH 1.2) % remaining 24 h: SGF pH 1.2, 37° C.
Description: 10 μL of a 10 mM stock solution of the Examples were dissolved in 490 μL DMSO to afford […] working solution SGF (pH 1.2):
Dissolve 0.04 g NaCl and 0.064 g pepsin in 0.14 mL HCl and add sufficient water to 20 mL volume. The pH of the test solution was 1.20±0.05.
0.056% (w/v) lecithin, 0.161% (w/v) sodium taurocholate, 0.39% (w/v) monobasic potassium phosphate, 0.77% (w/v) potassium chloride, deionized H2O. The pH of the test solution was 6.5±0.05.
30 mL of 10×PBS (pH7.4) was added into a 50 mL flask and diluted with water. The solution was mixed well and adjusted to pH 7.4 with 1 N HCl.
2 μL of the 200 μL working solution of the Examples was added into 96-deep-well plates for TO, T60, T120, T360 and T1440 timepoints. Duplicates were prepared.
Stability studies were commenced by the addition of 198 μL of the required media (e.g. Simulated Gastric Fluid pH 1.2 [SGF], Simulated Fasted State Intestinal Fluid pH 6.5 [FaSSIF]) and Phosphate Buffered Saline pH 7.4 [PBS]) to each well except TO. The samples were incubated at 37° C. at 600 rpm for the appointed time. The samples at the corresponding timepoint were removed and immediately mixed with 400 μL of cold acetonitrile containing 200 ng/mL tolbutamide and labetalol (internal standard). The samples were centrifuged at 4000 rpm at 4° C. for 20 minutes. 60 μL of the supernatant was removed and mixed with 180 μL purified water and thoroughly mixed and analysed by LCMS (Shimadzu LC 30-AD, ACQUITY UPLC BEH Phenyl 1.7 um 2.1*50 mm Part No. 186002884, with mobile phase A: 0.1% formic acid in water, mobile phase B: 0.1% formic acid in acetonitrile). Formation of parent was also monitored as a metabolite.
Samples were analysed by Mass Spectrometry QTRAP 6500+.

[2] = Solubility in simulated fluids (kinetic solubility, 24 hours); format: physicochemical; conditions: thermodynamic from solid, 24 hour timepoint, room temperature
Description: A known quantity of the Examples and control compounds were weighed into a suitable vessel (whatman miniuniprep vials) and a known volume of the required media was added (e.g. Simulated Gastric Fluid pH 1.2 [SGF], Simulated Fasted State Intestinal Fluid pH 6.5 [FaSSIF] or Phosphate Buffered Saline pH 7.4 [PBS]). The samples were subjected to vortex mixing for 2 minutes followed by agitation on a shaker for 24 hours at room temperature at 800 rpm.

[3] = in vitro; format: in vitro ADME; conditions: rat intestinal microsomes, NADPH, 37° C.
Description: 5 μL of a 10 mM stock solution of the Examples were dissolved in 495 μL acetonitrile to afford 500 μL working solution.
The appropriate amount of β-Nicotinamide adenine dinucleotide phosphate reduced form, tetrasodium salt; NADPH-4Na (NADPH) powder was weighed and diluted into a 10 mM MgCl2 solution (working solution concentration: 10 unit/mL; final concentration in reaction system: 1 unit/mL).
The appropriate concentrations of rat intestinal microsome (Xenotech, cat. No R1000.1) working solutions were prepared in 100 mM potassium phosphate buffer.
Cold (4° C.) acetonitrile (ACN) containing 200 ng/mL tolbutamide and 200 ng/mL labetalol as internal standards (IS).
Incubation plates were pre-incubated for 10 minutes at 37° C. with constant shaking. 54 μL was transferred from Incubation plates into a blank plate and then 6 μL NADPH cofactor and 180 μL quenching solution was added to the Incubation plates. 5 μL Example working solution (100 μM) was also added to the Incubation plates and mixed thoroughly.
The T60 Incubation plate was mixed thoroughly and for the 0-min timepoint, 54 μL was transferred into a Quenching plate (containing 180 μL quenching solution and 6 μL NADPH cofactor). 44 μL NADPH cofactor was then added to the T60 Incubation plate and incubated at 37° C. for 60 min while shaking. At 5, 15, 30, 45, and 60 min, 60 μL samples were transferred from T60 Incubation plate into a Quenching plate (containing 180 μl quenching solution). For the NCF60 Incubation plate, 50 μL of buffer was added and mixed thoroughly before incubation at 37° C. for 60 min while shaking, at the 60-min time point 60 μL was transferred to the Quenching plate (containing 180 μl quenching solution). All sampling plates were shaken for 10 min, then centrifuged at 4000 rpm for 20 minutes at 4° C. 80 μL supernatant was transferred into 240 μL HPLC water, and mixed for 10 min.

[4] = format: in vitro ADME; conditions: rat plasma, 37° C.
Description: 5 μL of a 10 mM stock solution of the Examples were dissolved in 495 μL DMSO to afford 500 μL working solution Assay procedure:
98 μL plasma was added to each well of a 96-well reaction plate, using one plate per timepoint (Blank, TO, T10, T30, T60, and T120). 2 μL of working solution was added to each well of the reaction plates except Blank. Each plate was incubated at 37° C. for the indicated timepoint (0, 10, 30, 60, 120 minutes). At the end of incubation, 400 μL of stop solution (200 ng/mL tolbutamide and 200 ng/mL labetalol in 0.1% FA in ACN) was added to precipitate protein. The plates were then sealed and shaken for 20 minutes before centrifugation at 4000 rpm for 20 minutes. […] Formation of parent was also monitored as a metabolite.

[5] = simulated gastric fluid, SGF (pH 1.2)

| Structure (SMILES) | FaSSIF (pH 6.5) % remaining 1 h [1] [%] | FaSSIF (pH 6.5) % remaining 6 h [1] [%] | FaSSIF (pH 6.5) % remaining 24 h [1] [%] | PBS (pH 7.4) % remaining 1 h [1] [%] | PBS (pH 7.4) % remaining 6 h [1] [%] | PBS (pH 7.4) % remaining 24 h [1] [%] | SGF (pH 1.2) % remaining 1 h [1] [%] | SGF (pH 1.2) % remaining 6 h [1] [%] | SGF (pH 1.2) % remaining 24 h [1] [%] | solubility kinetic at 24 h [2, 5] [µg/mL] | solubility kinetic at 24 h ([2]; FaSSIF (pH 6.5)) [µg/mL] | CIint(mic) [3] [µL/min/mg] | half-life at 1 µM [3] [min] | % Example remaining 0 min [4] [%] | Example concentration (nM) 0 min [4] [nM] | % Example remaining 10 min [4] [%] | Example concentration (nM) 10 min [4] [nM] |
| --- | --- | --- | --- | --- | --- | --- | --- | --- | --- | --- | --- | --- | --- | --- | --- | --- | --- |
| CCOC(=O)c1ccc2c(c1)nc(OCCOCCCCNCc1cc(F)c(OC(F)(F)F)c(F)c1)c1ccncc12 [Example 8, ethyl 5-(2-(4-((3,5-difluoro-4-(trifluoromethoxy)benzyl)amino)butoxy)ethoxy)benzo[c][2,6]naphthyridine-8-carboxylate] | 98.5 | 102.6 | 100.4 | 63.2 | 25.3 | 7.6 | 108.2 | 63.8 | 23.3 | 17.8 (≈ 30 µM) | 82.8 (≈ 139 µM) | 37.6 | 61.4 | 100.0 | 1687.0 | 0.2 | 3.1 |
| CCC(=O)OCOC(=O)c1ccc2c(c1)nc(OCCOCCCCNCc1cc(F)c(OC(F)(F)F)c(F)c1)c1ccncc12 [Example 12, (propionyloxy)methyl 5-(2-(4-((3,5-difluoro-4-(trifluoromethoxy)benzyl)amino)butoxy)ethoxy)benzo[c][2,6]naphthyridine-8-carboxylate] | 94.9 | 96.5 | 99.8 | 76.4 | 6.3 | 1.1 | 101.3 | 49.5 | 10.1 | 7.4 (≈ 11.4 µM) | 97.5 (≈ 150 µM) | 90.8 | 25.4 | – | – | – | – |
| CC(C)OC(=O)OCOC(=O)c1ccc2c(c1)nc(OCCOCCCCNCc1cc(F)c(OC(F)(F)F)c(F)c1)c1ccncc12 [Example 14, ((isopropoxycarbonyl)oxy)methyl 5-(2-(4-((3,5-difluoro-4-(trifluoromethoxy)benzyl)amino)butoxy)ethoxy)benzo[c][2,6]naphthyridine-8-carboxylate] | 98.2 | 93.6 | 102.8 | 91.7 | 34.3 | 4.4 | 105.1 | 63.8 | 23.2 | 15 (≈ 22 µM) | 100 (≈ 147 µM) | 1604.8 | 1.4 | – | – | – | – |
| Cc1oc(=O)oc1COC(=O)c1ccc2c(c1)nc(OCCOCCCCNCc1cc(F)c(OC(F)(F)F)c(F)c1)c1ccncc12 [Example 7, (5-methyl-2-oxo-1,3-dioxol-4-yl)methyl 5-(2-(4-((3,5-difluoro-4-(trifluoromethoxy)benzyl)amino)butoxy)ethoxy)benzo[c][2,6]naphthyridine-8-carboxylate] | 101.0 | 93.5 | 89.1 | 78.9 | 16.7 | 0.7 | 98.9 | 67.2 | 26.9 | 18.5 (≈ 27.3 µM) | 76.1 (≈ 112 µM) | – | – | 100.0 | 1887.9 | 0.1 | 1.2 |
| CC(C)(C)OC(=O)c1ccc2c(c1)nc(OCCOCCCCNCc1cc(F)c(OC(F)(F)F)c(F)c1)c1ccncc12 [Example 9, tert-butyl 5-(2-(4-((3,5-difluoro-4-(trifluoromethoxy)benzyl)amino)butoxy)ethoxy)benzo[c][2,6]naphthyridine-8-carboxylate] | 92.1 | 98.3 | 96.1 | 80.9 | 27.9 | 10.0 | 102.1 | 57.9 | 19.6 | 16.1 (≈ 25.9 µM) | 88.3 (≈ 142 µM) | 78.9 | 29.3 | – | – | – | – |
